Assay [1] has as its target T1, Axl (Homo sapiens, UniProt P30530).
T1 sequence (P30530 26-894): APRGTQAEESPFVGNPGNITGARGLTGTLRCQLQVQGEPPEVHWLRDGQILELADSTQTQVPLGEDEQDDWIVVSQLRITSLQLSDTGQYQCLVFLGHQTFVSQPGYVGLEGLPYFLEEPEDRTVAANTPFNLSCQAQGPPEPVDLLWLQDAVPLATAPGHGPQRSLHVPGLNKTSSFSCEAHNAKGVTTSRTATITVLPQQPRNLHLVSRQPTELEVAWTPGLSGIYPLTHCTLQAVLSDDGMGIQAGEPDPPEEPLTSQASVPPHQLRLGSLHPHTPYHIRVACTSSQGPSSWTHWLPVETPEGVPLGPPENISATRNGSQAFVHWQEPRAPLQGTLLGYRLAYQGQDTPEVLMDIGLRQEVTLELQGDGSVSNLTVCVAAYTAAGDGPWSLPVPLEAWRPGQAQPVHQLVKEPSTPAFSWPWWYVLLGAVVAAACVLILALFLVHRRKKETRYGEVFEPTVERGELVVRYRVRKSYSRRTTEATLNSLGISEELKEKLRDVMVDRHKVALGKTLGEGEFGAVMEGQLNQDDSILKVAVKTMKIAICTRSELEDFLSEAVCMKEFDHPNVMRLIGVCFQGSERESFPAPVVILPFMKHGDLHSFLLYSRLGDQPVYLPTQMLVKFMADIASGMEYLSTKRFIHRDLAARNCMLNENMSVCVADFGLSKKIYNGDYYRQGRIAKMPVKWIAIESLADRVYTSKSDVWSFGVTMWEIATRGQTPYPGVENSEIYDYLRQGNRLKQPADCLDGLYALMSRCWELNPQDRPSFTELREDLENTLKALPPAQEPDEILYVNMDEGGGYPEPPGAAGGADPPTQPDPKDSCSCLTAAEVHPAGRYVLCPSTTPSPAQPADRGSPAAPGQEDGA
Kind of assay: HTRF KinEASE-TK biochemical potency, AXL. Set-up: purchased Invitrogen. The conditions noted are these: 5 nM AXL, 700 μM ATP. Here is the method:
Purified recombinant human AXL, TYRO3 and MER proteins were purchased from Invitrogen™. 10 nM AXL, 2 nM TYRO3 or MER were incubated with varying concentrations of compounds in 50 mM HEPES, pH 7.4, 10 mM MgCl2, 0.01% BSA, 1 mM DTT and 2% DMSO in a total volume of 20 μl in a 384-well microplate (Corning™ #3640) at RT for 1 h. The AXL, TYRO3 and MER enzymatic reaction was initiated by transferring 10 μl of enzyme and compound mixture into 10 μl of 1.6 μM TK Substrate-biotin (HTRF® KinEASE-TK kit, Cisbio) and 1400 μM ATP pre-incubated in 50 mM HEPES, pH 7.4, 10 mM MgCl2, 0.01% BSA, 1 mM DTT in a 384-well microplate (Corning™ #3640) at RT, giving the final reaction conditions: 5 nM AXL, 1 nM TYRO3 or MER, 800 nM TK Substrate-biotin and 700 μM ATP in 50 mM HEPES, pH 7.4, 10 mM MgCl2, 0.01% BSA, 1 mM DTT and 1% DMSO with varying concentrations of compounds. Following 2 h incubation at RT, the AXL, TYRO3 and MER enzymatic reaction was stopped by transfer of 10 μl of reaction into 10 μl of detection mix (400 nM Streptavidin-XL665, 200-fold dilution TK Antibody-Cryptate and detection buffer, HTRF® KinEASE-TK kit, Cisbio) in a white 384-well microplate (Perkin Elmer, OptiPlate 384). After 1 h incubation at RT, the plate was put into a plate reader (Evision) to read at 665/620 nm (acceptor/donor) for HTRF. The value of the DMSO blank (MIN inhibition=100% activity) was used as a negative control. The positive control was established by adding 5 μl of enzyme and DMSO mixture into 10 μl of detection mix followed by addition of 5 μl of TK Substrate-biotin and ATP mixture (MAX inhibition=0% activity). To calculate the percent activity, Equation 1 was used. Ratio665/620 is the value at a given compound concentration: […]

The target of assay [2] is T1, Axl. The assay can be described thus: Axl NanoBRET intracellular kinase assay (Cell Binding). Set-up: host or cells: HEK-293. The conditions noted are these: HEK-293 cells transfected with Axl-NanoLuc fusion vector; displacement of K-5 NanoBRET tracer. Here is the method:
Axl NanoBRET™ intracellular kinase assay (Promega, N2540) was performed according to manufacturer's recommendation. In brief, HEK-293 cells are transiently transfected with Axl-NanoLuc fusion vector (Promega, NV1071), utilizing Fugene HD transfection reagent (Promega, E2311) a day before experiment following manufacturer's recommendation.
The day of the assay, the cells were collected and resuspended in Opti-MEM media (ThermoFisher, 31985070) at 2e5 cells/mL concentration. Testing compounds were serial diluted and dispensed into a white 384 well polystyrene plate at 200 nL in 100% DMSO. 40 μL of resuspended cells is then added per well for a final condition of 8K cells/well with 0.5% DMSO. After one-hour compound pre-incubation at 37° C. and 5% CO2, cells were further incubated with 0.35 μM K-5 NanoBRET tracer for two-hours at 37° C. and 5% CO2. […] of 3× substrate plus Inhibitor solution was prepared according to kits manual and added to the cells followed by a 30 second pulse centrifugation spin. The plate was then immediately read utilizing an Envision (Perkin Elmer) plate reader. The BRET signal is measured by taking the ratio of the emissions reading at 610 nm and 450 nm. Compound binding is based on the decrease BRET signal caused by the displacement of the K-5 tracer. […] IC50 value of compounds was determined by 4-parameter non-linear regression fitting of percent activity in GraphPad Prism software.

Take `O=C1NCCOc2cc(-c3n[nH]c4ncc(-c5ccc6c(c5)CN(C5CCCC5)CC6)cc34)ccc21` [Example 10, 8-(5-(2-Cyclopentyl-1,2,3,4-tetrahydroisoquinolin-7-yl)-1H-pyrazolo[3,4-b]pyridin-3-yl)-3,4-dihydrobenzo[f][1,4]oxazepin-5(2H)-one]: the half-inhibitory concentration (IC50) at Axl [1] was less than 100 nM; at Axl [2], 100 to 1000 nM.

For `O=C1NCCOc2cc(-c3n[nH]c4ncc(-c5ccc6c(c5)CCN(C5COC5)CC6)cc34)ccc21` [Example 11, 8-(5-(3-(Oxetan-3-yl)-2,3,4,5-tetrahydro-1H-benzo[d]azepin-7-yl)-1H-pyrazolo[3,4-b]pyridin-3-yl)-3,4-dihydrobenzo[f][1,4]oxazepin-5(2H)-one], the IC50 on Axl [1] was less than 100 nM; at Axl [2] it was 100 to 1000 nM.

As for `O=C1NCCOc2cc(-c3n[nH]c4ncc(-c5ccc6c(c5)CCN(C5COC5)C6)cc34)ccc21` [Example 12, 8-(5-(2-(Oxetan-3-yl)-1,2,3,4-tetrahydroisoquinolin-6-yl)-1H-pyrazolo[3,4-b]pyridin-3-yl)-3,4-dihydrobenzo[f][1,4]oxazepin-5(2H)-one], the IC50 against Axl [1] is less than 100 nM; at Axl [2], 100 to 1000 nM.

Turning to `COCCN1CCc2cc(-c3cnc4[nH]nc(-c5ccc6c(c5)OCCNC6=O)c4c3)ccc2C1` [Example 13, 8-(5-(2-(2-Methoxyethyl)-1,2,3,4-tetrahydroisoquinolin-6-yl)-1H-pyrazolo[3,4-b]pyridin-3-yl)-3,4-dihydrobenzo[f][1,4]oxazepin-5(2H)-one], the half-inhibitory concentration (IC50) at Axl [1] was less than 100 nM; at Axl [2] it was 100 to 1000 nM.

`COCCN1CCc2ccc(-c3cnc4[nH]nc(-c5ccc6c(c5)OCCNC6=O)c4c3)cc2CC1` [Example 15, 8-(5-(3-(2-Methoxyethyl)-2,3,4,5-tetrahydro-1H-benzo[d]azepin-7-yl)-1H-pyrazolo[3,4-b]pyridin-3-yl)-3,4-dihydrobenzo[f][1,4]oxazepin-5(2H)-one]: the IC50 at Axl [1] and at Axl [2] was less than 100 nM in each case.

`CC(C)C(=O)N1CCc2ccc(-c3cnc4[nH]nc(-c5ccc6c(c5)OCCNC6=O)c4c3)cc2CC1` [Example 16, 8-{5-[3-(2-Methylpropanoyl)-2,3,4,5-tetrahydro-1H-3-benzazepin-7-yl]-1H-pyrazolo[3,4-b]pyridin-3-yl}-2,3,4,5-tetrahydro-1,4-benzoxazepin-5-one]: the IC50 is less than 100 nM on Axl [1] and 100 to 1000 nM at Axl [2].

On to `O=C1NCCOc2cc(-c3n[nH]c4ncc(-c5ccc6c(c5)CCN(C(=O)C5CC5)CC6)cc34)ccc21` [Example 17, 8-[5-(3-Cyclopropanecarbonyl-2,3,4,5-tetrahydro-1H-3-benzazepin-7-yl)-1H-pyrazolo[3,4-b]pyridin-3-yl]-2,3,4,5-tetrahydro-1,4-benzoxazepin-5-one], for which the values for the half-inhibitory concentration (IC50) against Axl [1] and at Axl [2] were less than 100 nM and 100 to 1000 nM, respectively.

For the compound `CC(C)(O)C(=O)N1CCc2ccc(-c3cnc4[nH]nc(-c5ccc6c(c5)OCCNC6=O)c4c3)cc2CC1` [Example 19, 8-(5-(3-(2-Hydroxy-2-methylpropanoyl)-2,3,4,5-tetrahydro-1H-benzo[d]azepin-7-yl)-1H-pyrazolo[3,4-b]pyridin-3-yl)-3,4-dihydrobenzo[f][1,4]oxazepin-5(2H)-one], the IC50 at Axl [1] was less than 100 nM; at Axl [2], 100 to 1000 nM.

On to `O=C1NCCOc2cc(-c3n[nH]c4ncc(-c5ccc6c(c5)CCN(C5CC5)CC6)cc34)ccc21` [Example 20, 8-(5-(3-Cyclopropyl-2,3,4,5-tetrahydro-1H-benzo[d]azepin-7-yl)-1H-pyrazolo[3,4-b]pyridin-3-yl)-3,4-dihydrobenzo[f][1,4]oxazepin-5(2H)-one], for which the IC50 at Axl [1] is less than 100 nM; at Axl [2], 100 to 1000 nM.

`O=C1NCCOc2cc(-c3n[nH]c4ncc(-c5ccc6c(c5)CCN(C5CC5)C6)cc34)ccc21` [Example 21, 8-(5-(2-Cyclopropyl-1,2,3,4-tetrahydroisoquinolin-6-yl)-1H-pyrazolo[3,4-b]pyridin-3-yl)-3,4-dihydrobenzo[f][1,4]oxazepin-5(2H)-one]: the IC50 against Axl [1] was less than 100 nM; on Axl [2] it was 100 to 1000 nM.

In the case of `CC1(N2CCCC2)CCc2ccc(-c3cnc4[nH]nc(-c5ccc6c(c5)OCCNC6=O)c4c3)cc2CC1` (stereo not drawn) [Example 22, 8-{5-[7-Methyl-7-(pyrrolidin-1-yl)-6,7,8,9-tetrahydro-5H-benzo[7]annulen-2-yl]-1H-pyrazolo[3,4-b]pyridin-3-yl}-2,3,4,5-tetrahydro-1,4-benzoxazepin-5-one], the IC50 against Axl [1] and at Axl [2] was less than 100 nM each time.

Consider `C[C@@H]1CCCN1C1(C)CCc2ccc(-c3cnc4[nH]nc(-c5ccc6c(c5)OCCNC6=O)c4c3)cc2CC1` (stereo partly drawn) [Example 23, 8-(5-{7-Methyl-7-[(2R)-2-methylpyrrolidin-1-yl]-6,7,8,9-tetrahydro-5H-benzo[7]annulen-2-yl}-1H-pyrazolo[3,4-b]pyridin-3-yl)-2,3,4,5-tetrahydro-1,4-benzoxazepin-5-one], for which the IC50 at Axl [1] and at Axl [2] was less than 100 nM in each case.

Regarding `C[C@H]1CCCN1C1(C)CCc2ccc(-c3cnc4[nH]nc(-c5ccc6c(c5)OCCNC6=O)c4c3)cc2CC1` (stereo partly drawn) [Example 24, 8-(5-{7-Methyl-7-[(2S)-2-methylpyrrolidin-1-yl]-6,7,8,9-tetrahydro-5H-benzo[7]annulen-2-yl}-1H-pyrazolo[3,4-b]pyridin-3-yl)-2,3,4,5-tetrahydro-1,4-benzoxazepin-5-one], the concentration for half-maximal inhibition (IC50) against Axl [1] and at Axl [2] was less than 100 nM each time.

With `CC[C@@H]1CCCN1C1CCc2ccc(-c3cnc4[nH]nc(-c5ccc6c(c5)OCCNC6=O)c4c3)cc2CC1` (stereo partly drawn) [Example 25, 8-(5-{7-[(2R)-2-Ethylpyrrolidin-1-yl]-6,7,8,9-tetrahydro-5H-benzo[7]annulen-2-yl}-1H-pyrazolo[3,4-b]pyridin-3-yl)-2,3,4,5-tetrahydro-1,4-benzoxazepin-5-one], the half-maximal inhibitory concentration (IC50) at Axl [1] and on Axl [2] was less than 100 nM in each case.

For the compound `CC1(O)CCOc2cc(-c3n[nH]c4ncc(-c5ccc6c(c5)CCN(C5CCCC5)CC6)cc34)ccc21` (stereo not drawn) [Example 26, 7-[5-(3-Cyclopentyl-2,3,4,5-tetrahydro-1H-3-benzazepin-7-yl)-1H-pyrazolo[3,4-b]pyridin-3-yl]-4-methyl-3,4-dihydro-2H-1-benzopyran-4-ol], the IC50 against Axl [1] is less than 100 nM; at Axl [2] it was 100 to 1000 nM.

The record behind these values is patent US20240226115A1, “AXL INHIBITOR COMPOUNDS” (ARCUS BIOSCIENCES, INC., priority 2021, published 2024).
